Data as given in ChEMBL document CHEMBL4138163, “DMXAA-pyranoxanthone hybrids enhance inhibition activities against human cancer cells with multi-target functions” (Eur J Med Chem, 2018).
Activity calls are given as the source filed them. The calls are words filed in the database; no cut-off is given here.

Tests used:
HepG2 [1] = test: Induction of apoptosis in human HepG2 cells assessed as downregulation of Bcl-xL expression co-treated with pyranoxanthone at 1:1 molar ratio after 24 hrs by Western blot method; type: functional, cell-based
HepG2 [2] = test: Cell cycle arrest in human HepG2 cells assessed as accumulation at S phase at 0.2 uM after 28 hrs by propidium iodide staining-based flow cytometric method relative to control
K562 [3] = test: Antiproliferative activity against human K562 cells co-treated with pyranoxanthone at 1:1 molar ratio after 24 hrs by MTT assay; type: functional, cell-based; settings: K562, 24 h
HepG2 [4] = test: Induction of apoptosis in human HepG2 cells assessed as increase in cleaved PARP levels co-treated with pyranoxanthone at 1:1 molar ratio after 24 hrs by Western blot method; type: functional, cell-based
MCF7 [5] = test: Antiproliferative activity against human MCF7 cells co-treated with pyranoxanthone at 1:1 molar ratio after 24 hrs by MTT assay; type: functional, cell-based; settings: MCF7, 24 h
HepG2 [6] = test: Induction of apoptosis in human HepG2 cells assessed as late apoptotic cells at 0.2 uM after 24 hrs by annexin-V/propidium iodide staining-based flow cytometric method relative to control; type: functional
[7] = target: T1, Tumour suppressor p53/oncoprotein Mdm2 (Homo sapiens) (UniProt P04637+Q00987); test: Inhibition of MDM2/p53 interaction in human HepG2 cells assessed as increase in p53 to MDM2 ratio co-treated with pyranoxanthone at 1:1 molar ratio after 24 hrs by Western blot method (reference value: 0.083); type: cell-based
T1 sequence (P04637 whole entry, looked up): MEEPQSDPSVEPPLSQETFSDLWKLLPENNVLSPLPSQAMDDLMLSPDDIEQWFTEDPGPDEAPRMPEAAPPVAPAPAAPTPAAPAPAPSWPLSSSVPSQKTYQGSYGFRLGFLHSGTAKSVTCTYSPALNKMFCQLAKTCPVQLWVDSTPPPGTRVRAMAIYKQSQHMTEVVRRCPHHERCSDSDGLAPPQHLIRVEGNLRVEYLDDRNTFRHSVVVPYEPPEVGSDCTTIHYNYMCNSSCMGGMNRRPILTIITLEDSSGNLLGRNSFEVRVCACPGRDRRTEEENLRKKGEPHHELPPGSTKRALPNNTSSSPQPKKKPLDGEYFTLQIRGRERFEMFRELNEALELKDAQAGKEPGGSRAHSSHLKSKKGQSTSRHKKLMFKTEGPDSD
T1 sequence (Q00987 whole entry, looked up): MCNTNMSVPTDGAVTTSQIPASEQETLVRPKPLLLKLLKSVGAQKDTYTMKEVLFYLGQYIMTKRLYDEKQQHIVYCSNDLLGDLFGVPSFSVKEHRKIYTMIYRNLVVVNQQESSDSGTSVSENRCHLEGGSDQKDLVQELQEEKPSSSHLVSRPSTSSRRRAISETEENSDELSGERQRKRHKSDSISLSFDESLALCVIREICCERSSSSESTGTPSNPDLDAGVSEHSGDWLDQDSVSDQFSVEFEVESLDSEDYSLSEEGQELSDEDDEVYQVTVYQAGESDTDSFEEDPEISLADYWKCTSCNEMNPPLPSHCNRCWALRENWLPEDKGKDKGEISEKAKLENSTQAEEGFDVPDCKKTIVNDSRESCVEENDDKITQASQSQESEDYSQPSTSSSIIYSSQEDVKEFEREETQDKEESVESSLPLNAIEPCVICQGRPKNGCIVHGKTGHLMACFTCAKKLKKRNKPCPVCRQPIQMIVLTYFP

HepG2 [8] = test: Induction of apoptosis in human HepG2 cells assessed as increase in cleaved caspase-3 levels co-treated with pyranoxanthone at 1:1 molar ratio after 24 hrs by Western blot method; type: functional, cell-based
HepG2 [9] = test: Induction of apoptosis in human HepG2 cells assessed as early apoptotic cells co-treated with pyranoxanthone at 1:1 molar ratio after 24 hrs by annexin-V/propidium iodide staining-based flow cytometric method relative to control; type: functional
HepG2 [10] = test: Induction of apoptosis in human HepG2 cells assessed as ratio of Bax/Bcl-2 co-treated with pyranoxanthone at 1:1 molar ratio after 24 hrs by Western blot method (reference value: 0.23); type: functional
HepG2 [11] = test: Induction of apoptosis in human HepG2 cells assessed as increase in cleaved PARP levels at 0.2 uM after 24 hrs by Western blot method; type: functional, cell-based
NIH3T3 [12] = test: Antiproliferative activity against mouse NIH/3T3 cells after 24 hrs by MTT assay; type: cell-based
HepG2 [13] = test: Induction of apoptosis in human HepG2 cells assessed as upregulation of Bid expression co-treated with pyranoxanthone at 1:1 molar ratio after 24 hrs by Western blot method; type: functional, cell-based
L02 [14] = test: Antiproliferative activity against human HL-7702 cells after 24 hrs by MTT assay; type: functional, cell-based; settings: L02, 24 h
MDA-MB-231 [15] = test: Antiproliferative activity against human MDA-MB-231 cells co-treated with pyranoxanthone at 1:1 molar ratio after 24 hrs by MTT assay; type: functional, cell-based; settings: MDA-MB-231, 24 h
HepG2 [16] = test: Cell cycle arrest in human HepG2 cells assessed as accumulation at S phase co-treated with pyranoxanthone at 1:1 molar ratio after 28 hrs by propidium iodide staining-based flow cytometric method
HepG2 [17] = test: Induction of apoptosis in human HepG2 cells assessed as early apoptotic cells at 0.2 uM after 24 hrs by annexin-V/propidium iodide staining-based flow cytometric method relative to control; type: functional
HepG2 [18] = test: Induction of apoptosis in human HepG2 cells assessed as increase in cleaved caspase-9 levels co-treated with pyranoxanthone at 1:1 molar ratio after 24 hrs by Western blot method; type: functional, cell-based
HepG2 [19] = test: Induction of apoptosis in human HepG2 cells assessed as early apoptotic cells co-treated with DMXAA at 1:1 molar ratio after 24 hrs by annexin-V/propidium iodide staining-based flow cytometric method relative to control; type: functional
HepG2 [20] = test: Induction of apoptosis in human HepG2 cells assessed as increase in cleaved caspase-9 levels at 0.2 uM after 24 hrs by Western blot method; type: functional, cell-based
HepG2 [21] = test: Induction of apoptosis in human HepG2 cells assessed as increase in cleaved caspase-3 levels at 0.2 uM after 24 hrs by Western blot method; type: functional, cell-based
HepG2 [22] = test: Antiproliferative activity against human HepG2 cells co-treated with pyranoxanthone at 1:1 molar ratio after 24 hrs by MTT assay; type: functional, cell-based; settings: HepG2, 24 h
[23] = target: T1, Tumour suppressor p53/oncoprotein Mdm2 (Homo sapiens); test: Inhibition of MDM2/p53 interaction in human HepG2 cells assessed as increase in p53 to MDM2 ratio at 0.2 uM after 24 hrs by Western blot method (reference value: 0.083); type: cell-based
HepG2 [24] = test: Antiproliferative activity against human HepG2 cells after 24 hrs by MTT assay; type: functional, cell-based; settings: HepG2, 24 h
[25] = Half life in cell culture medium at 10 uM by HPLC method; type: physicochemical
K562 [26] = test: Antiproliferative activity against human K562 cells after 24 hrs by MTT assay; type: functional, cell-based; settings: K562, 24 h
NIH3T3 [27] = test: Antiproliferative activity against mouse NIH/3T3 cells after 48 hrs by MTT assay; type: cell-based; settings: nih3t3, 48 h
MDA-MB-231 [28] = test: Antiproliferative activity against human MDA-MB-231 cells after 24 hrs by MTT assay; type: functional, cell-based; settings: MDA-MB-231, 24 h
HepG2 [29] = test: Induction of apoptosis in human HepG2 cells assessed as ratio of Bax/Bcl-2 at 0.2 uM after 24 hrs by Western blot method (reference value: 0.23); type: functional
HepG2 [30] = test: Induction of apoptosis in human HepG2 cells assessed as downregulation of Bcl-xL expression at 0.2 uM after 24 hrs by Western blot method; type: functional, cell-based
L02 [31] = test: Antiproliferative activity against human HL-7702 cells after 48 hrs by MTT assay; type: functional, cell-based; settings: L02, 48 h
[32] = Selectivity ratio of IC50 for human HL-7702 cells to IC50 for human HepG2 cells; type: functional
[33] = Half life in Kunming mouse plasma at 10 uM by HPLC method; type: ADME, cell-free
HepG2 [34] = test: Induction of apoptosis in human HepG2 cells assessed as upregulation of Bid expression at 0.2 uM after 24 hrs by Western blot method; type: functional, cell-based
MCF7 [35] = test: Antiproliferative activity against human MCF7 cells after 24 hrs by MTT assay; type: functional, cell-based; settings: MCF7, 24 h
MCF7 [36] = test: Antiproliferative activity against human MCF7 cells co-treated with DMXAA at 1:1 molar ratio after 24 hrs by MTT assay; type: functional, cell-based; settings: MCF7, 24 h
HepG2 [37] = test: Induction of apoptosis in human HepG2 cells assessed as increase in cleaved PARP levels co-treated with DMXAA at 1:1 molar ratio after 24 hrs by Western blot method; type: functional, cell-based
HepG2 [38] = test: Induction of apoptosis in human HepG2 cells assessed as total apoptosis rate at 0.2 uM after 24 hrs by annexin-V/propidium iodide staining-based flow cytometric method relative to control; type: functional
HepG2 [39] = test: Induction of apoptosis in human HepG2 cells assessed as increase in cleaved caspase-3 levels co-treated with DMXAA at 1:1 molar ratio after 24 hrs by Western blot method; type: functional, cell-based
HepG2 [40] = test: Induction of apoptosis in human HepG2 cells assessed as upregulation of Bid expression co-treated with DMXAA at 1:1 molar ratio after 24 hrs by Western blot method; type: functional, cell-based
HepG2 [41] = test: Induction of apoptosis in human HepG2 cells assessed as downregulation of Bcl-xL expression co-treated with DMXAA at 1:1 molar ratio after 24 hrs by Western blot method; type: functional, cell-based
HepG2 [42] = test: Induction of apoptosis in human HepG2 cells assessed as increase in cleaved caspase-9 levels co-treated with DMXAA at 1:1 molar ratio after 24 hrs by Western blot method; type: functional, cell-based
HepG2 [43] = test: Induction of apoptosis in human HepG2 cells assessed as ratio of Bax/Bcl-2 co-treated with DMXAA at 1:1 molar ratio after 24 hrs by Western blot method (reference value: 0.23); type: functional
HepG2 [44] = test: Cell cycle arrest in human HepG2 cells assessed as accumulation at S phase co-treated with DMXAA at 1:1 molar ratio after 28 hrs by propidium iodide staining-based flow cytometric method
[45] = target: T1, Tumour suppressor p53/oncoprotein Mdm2 (Homo sapiens); test: Inhibition of MDM2/p53 interaction in human HepG2 cells assessed as increase in p53 to MDM2 ratio co-treated with DMXAA at 1:1 molar ratio after 24 hrs by Western blot method (reference value: 0.083); type: cell-based
MDA-MB-231 [46] = test: Antiproliferative activity against human MDA-MB-231 cells co-treated with DMXAA at 1:1 molar ratio after 24 hrs by MTT assay; type: functional, cell-based; settings: MDA-MB-231, 24 h
HepG2 [47] = test: Induction of apoptosis in human HepG2 cells assessed as late apoptotic cells co-treated with DMXAA at 1:1 molar ratio after 24 hrs by annexin-V/propidium iodide staining-based flow cytometric method relative to control; type: functional
HepG2 [48] = test: Induction of apoptosis in human HepG2 cells assessed as necrotic cells at 0.2 uM after 24 hrs by annexin-V/propidium iodide staining-based flow cytometric method relative to control; type: functional
HepG2 [49] = test: Antiproliferative activity against human HepG2 cells co-treated with DMXAA at 1:1 molar ratio after 24 hrs by MTT assay; type: functional, cell-based; settings: HepG2, 24 h
HepG2 [50] = test: Induction of apoptosis in human HepG2 cells assessed as late apoptotic cells co-treated with pyranoxanthone at 1:1 molar ratio after 24 hrs by annexin-V/propidium iodide staining-based flow cytometric method relative to control; type: functional
K562 [51] = test: Antiproliferative activity against human K562 cells co-treated with DMXAA at 1:1 molar ratio after 24 hrs by MTT assay; type: functional, cell-based; settings: K562, 24 h

Row | SMILES | Activity (HepG2 [2]) | Activity (HepG2 [6]) [%] | Activity (HepG2 [11]) | IC50 (L02 [14]) [µM] | Activity (HepG2 [17]) [%] | Activity (HepG2 [20]) | Activity (HepG2 [21]) | fold change (FC) [23] | IC50 (HepG2 [24]) [µM] | IC50 (K562 [26]) [µM] | IC50 (MDA-MB-231 [28]) [µM] | Ratio (HepG2 [29]) | Activity (HepG2 [30]) | Activity (HepG2 [34]) | IC50 (MCF7 [35]) [µM] | further results
1 | Cc1ccc2c(=O)c3cccc(CC(=O)O)c3oc2c1C [VADIMEZAN] | Active | 7 | Active | 101 | 13 | Active | Active |  |  |  |  |  |  |  |  | Activity (HepG2 [1]): Active; IC50 (K562 [3]): 19.1 µM; Activity (HepG2 [4]): Active; IC50 (MCF7 [5]): 11.9 µM; fold change (FC) [7]: 0.67; Activity (HepG2 [8]): Active; Activity (HepG2 [9]): 15%; Ratio (HepG2 [10]): 0.58; IC50 (NIH3T3 [12]; Mus musculus, NIH3T3, 24 h): 67.8 µM; Activity (HepG2 [13]): Active; IC50 (MDA-MB-231 [15]): 12.1 µM; Activity (HepG2 [16]): Active; Activity (HepG2 [18]): Active; Activity (HepG2 [19]): 15%; IC50 (HepG2 [22]): 21.2 µM
2 | Cc1ccc2c(=O)c3cccc(CC(=O)OCCCCCCOc4c5c(cc6c(=O)c7ccccc7oc46)CCC(C)(C)O5)c3oc2c1C | 90% | 42 | Active | 378 to 452 | 38 | Active | Active | 0.81 | 0.216 | 9.13 | 1.13 | 0.87 | Active | Active | 0.534 | half-life at 10 µM [25]: 24.8 h; Activity (NIH3T3 [12]; mouse, nih3t3, 24 h): Non-Toxic; Activity (NIH3T3 [27]): Non-Toxic; IC50 (L02 [31]): 293 to 352 µM; Ratio IC50 [32]: 2092; half-life at 10 µM [33]: 4.2 h
3 | CC1(C)CCc2cc3c(=O)c4ccccc4oc3c(O)c2O1 [DIHYDRO-12-HYDROXY-2,2-DIMETHYL-2H,6H-PYRANO[3,2-B]XANTHEN-6-ONE] | Active |  | Active |  |  | Active | Active | 0.19 | 40.3 | 27.8 | 59.3 | 0.36 | Active | Active | 102 | IC50 (MCF7 [36]): 11.9 µM; Activity (HepG2 [37]): Active; Activity (HepG2 [38]): <10%; Activity (HepG2 [39]): Active; Activity (HepG2 [40]): Active; Activity (HepG2 [41]): Active; Activity (HepG2 [42]): Active; Ratio (HepG2 [43]): 0.58; Activity (HepG2 [44]): Active; fold change (FC) [45]: 0.67; IC50 (MDA-MB-231 [46]): 12.1 µM; Activity (HepG2 [47]): 46%; Activity (HepG2 [48]): <10%; IC50 (HepG2 [49]): 21.2 µM; Activity (HepG2 [50]): 46%; IC50 (K562 [51]): 19.1 µM
4 | Cc1ccc2c(=O)c3cccc(CC(=O)OCCCCOc4c5c(cc6c(=O)c7ccccc7oc46)CCC(C)(C)O5)c3oc2c1C |  |  |  |  |  |  |  |  | 11.9 | 20.6 | 19.6 |  |  |  | 33.2 | 
5 | Cc1ccc2c(=O)c3cccc(CC(=O)OCCCCCOc4c5c(cc6c(=O)c7ccccc7oc46)CCC(C)(C)O5)c3oc2c1C |  |  |  |  |  |  |  |  | 1.53 | 15 | 11.2 |  |  |  | 8.72 | 
6 | Cc1ccc2c(=O)c3cccc(CC(=O)OCCCOc4c5c(cc6c(=O)c7ccccc7oc46)CCC(C)(C)O5)c3oc2c1C |  |  |  |  |  |  |  |  | 32.7 | 32.3 | 32.2 |  |  |  | 51.7 | 
